Data reported in patent US8710233B2 (Gruenenthal GmbH, priority 2005, dated 2014).
Where two headings read alike, the source gives them in different places.

Legend:
Assay type in all cases: cell-based
[1] = target: T1, vanilloid receptor 1 (VR1/TRPV1) of the rat species (Rattus norvegicus, UniProt O35433); assay: FLIPR Ca2+ influx assay on rat dorsal root ganglia cells (pharmacological method I); settings: for inhibition in percent, Ki (rat) Cap.: @ 10 μM
T1 construct: The spinal column is removed from decapitated rats; from tissue; host or cells: primary cells dissociated from rat dorsal root ganglia
T1 sequence (O35433 whole entry): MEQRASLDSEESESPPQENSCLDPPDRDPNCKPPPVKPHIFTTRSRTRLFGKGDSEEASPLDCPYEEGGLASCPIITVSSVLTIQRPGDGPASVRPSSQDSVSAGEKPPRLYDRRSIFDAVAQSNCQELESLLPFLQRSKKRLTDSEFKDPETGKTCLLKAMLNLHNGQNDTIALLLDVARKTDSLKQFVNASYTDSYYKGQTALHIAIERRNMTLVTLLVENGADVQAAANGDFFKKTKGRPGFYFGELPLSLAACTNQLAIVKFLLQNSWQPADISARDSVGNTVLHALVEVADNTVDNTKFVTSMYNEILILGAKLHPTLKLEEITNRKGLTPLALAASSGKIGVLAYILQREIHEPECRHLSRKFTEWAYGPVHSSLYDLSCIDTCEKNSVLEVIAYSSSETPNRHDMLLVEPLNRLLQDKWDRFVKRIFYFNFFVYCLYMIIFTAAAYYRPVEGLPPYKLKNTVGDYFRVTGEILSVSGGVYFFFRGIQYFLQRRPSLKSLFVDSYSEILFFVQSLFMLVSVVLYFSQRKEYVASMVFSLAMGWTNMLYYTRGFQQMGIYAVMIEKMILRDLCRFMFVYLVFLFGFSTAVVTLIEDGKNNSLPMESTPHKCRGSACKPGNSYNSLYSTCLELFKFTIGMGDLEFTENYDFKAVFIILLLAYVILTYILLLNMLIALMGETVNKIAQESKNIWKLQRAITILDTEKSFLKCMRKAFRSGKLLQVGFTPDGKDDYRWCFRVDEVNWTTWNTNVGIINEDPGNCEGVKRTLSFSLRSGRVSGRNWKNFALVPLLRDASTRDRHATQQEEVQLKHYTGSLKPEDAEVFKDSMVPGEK
Source text: I. Functional Investigation of the Vanilloid Receptor 1 (VR1/TRPV1 Receptor)
The agonistic or antagonistic action of the substances to be investigated on the vanilloid receptor 1 (VR1/TRPV1) of the rat species may be determined by the following assay. According to this assay, the influx of Ca^2+ through the receptor channel is quantified with the assistance of a Ca^2+-sensitive dye (type Fluo-4, Molecular Probes Europe BV, Leiden, Netherlands) in a Fluorescent Imaging Plate Reader (FLIPR, Molecular Devices, Sunnyvale, USA).
The spinal column is removed from decapitated rats and is placed directly in cold, i.e. located in an ice bath, HBSS buffer (Hank's buffered saline solution, Gibco Invitrogen GmbH, Karlsruhe, Germany) combined with 1 vol. % (percent by volume) of an AA solution (antibiotic/antimycotic solution, PAA, Pasching, Austria). The spinal column is cut open longitudinally and removed together with fasciae from the spinal canal. The dorsal root ganglia (DRGs) are then removed and in turn stored in cold HBSS buffer combined with 1 vol. % of an AA solution. The DRGs, from which all traces of blood and spinal nerves have been removed, are in each case transferred into 500 μL of cold collagenase type 2 (PAA, Pasching, Austria) and incubated for 35 minutes at 37° C. […] Once incubation is complete, the enzyme solution is carefully removed by pipette and the DRGs, which are left behind, are in each case combined with 500 μL of complete medium.
The DRGs are in each case repeatedly suspended, drawn by means of a syringe through […], no. 12 and no. 16 cannulas and transferred into 50 mL Falcon microtubes and each tube is made up to 15 mL with complete medium. The contents of each Falcon microtube are in each case filtered through a 70 μm Falcon filter insert and centrifuged for 10 minutes at 1200 revolutions and room temperature. The resultant pellet is in each case resuspended in 250 μL of complete medium and the cell count determined.
The number of cells in the suspension is adjusted to 3×10^5 per mL and a 150 μL portion of this suspension is in each case placed in a well of the cell culture plate which has been coated as described above.
The cells are then loaded with 2 μM Fluo-4 and 0.01 vol. % Pluronic F127 (Molecular Probes Europe BV, Leiden, Netherlands) in HBSS buffer (Hank's buffered saline solution, Gibco Invitrogen GmbH, Karlsruhe, Germany) for 30 min at 37° C., washed 3× with HBSS buffer and, after a further 15 minutes' incubation at room temperature, used for Ca^2+ measurement in the FLIPR assay. […] Quantification proceeds by measuring the highest fluorescence intensity (FC, fluorescence counts) over time.
The FLIPR protocol comprises 2 additions of substance. The compounds to be tested (10 μM) are firstly pipetted onto the cells and Ca^2+ influx is compared with the control (capsaicin 10 μM). This provides the percentage activation relative to the Ca^2+ signal after addition of 10 μM of capsaicin (CP). After 5 minutes' incubation, 100 nM of capsaicin are added and the influx of Ca^2+ is again determined.
Desensitising agonists and antagonists result in suppression of Ca^2+ influx. The percentage inhibition in comparison with the maximum achievable inhibition with 10 μM capsaicin is calculated.
Triplicate determinations (n═3) are performed and these are repeated in at least 3 independent experiments […].

vanilloid receptor (VR1) = target: T2, vanilloid receptor (VR1) (Homo sapiens, UniProt Q8NER1); assay: FLIPR Ca2+ influx assay on CHO K1 cells transfected with the VR1 gene (pharmacological method II); settings: for inhibition in percent, Ki (human) Cap.: @ 10 μM
T2 construct: expressed in transfected cells; host or cells: CHO K1 cells (ECACC), stably transfected
T2 sequence (Q8NER1 whole entry): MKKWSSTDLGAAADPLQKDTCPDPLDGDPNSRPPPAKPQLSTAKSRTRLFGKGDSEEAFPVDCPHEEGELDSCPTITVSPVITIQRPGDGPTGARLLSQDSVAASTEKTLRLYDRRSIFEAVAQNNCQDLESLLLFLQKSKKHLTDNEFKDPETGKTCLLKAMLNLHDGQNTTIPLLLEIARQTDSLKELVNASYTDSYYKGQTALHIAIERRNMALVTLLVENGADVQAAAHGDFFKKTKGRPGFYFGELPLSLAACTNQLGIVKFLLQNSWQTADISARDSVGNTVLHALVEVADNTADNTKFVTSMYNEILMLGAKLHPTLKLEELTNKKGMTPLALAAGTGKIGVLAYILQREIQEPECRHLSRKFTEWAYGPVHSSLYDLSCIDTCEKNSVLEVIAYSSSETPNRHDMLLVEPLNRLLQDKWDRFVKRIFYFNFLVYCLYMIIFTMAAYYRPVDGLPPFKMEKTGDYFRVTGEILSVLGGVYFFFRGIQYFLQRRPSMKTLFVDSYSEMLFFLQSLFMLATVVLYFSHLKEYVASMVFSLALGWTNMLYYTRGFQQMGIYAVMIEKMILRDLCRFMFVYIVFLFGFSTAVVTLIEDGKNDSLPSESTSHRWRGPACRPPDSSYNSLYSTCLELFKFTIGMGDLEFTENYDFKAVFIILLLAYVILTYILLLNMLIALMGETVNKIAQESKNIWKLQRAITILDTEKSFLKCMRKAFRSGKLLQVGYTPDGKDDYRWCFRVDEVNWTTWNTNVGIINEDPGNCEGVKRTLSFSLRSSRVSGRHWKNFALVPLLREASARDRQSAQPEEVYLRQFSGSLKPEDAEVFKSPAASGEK

VR1/TRPV1 receptor = VR1/TRPV1 receptor (Homo sapiens, UniProt Q8NER1); assay: IC50 (human) after pH stimulus
Sequence of VR1/TRPV1 receptor (Q8NER1 whole entry): as above

[2] = Table 2, displacement of capsaicin (100 nM), Cheng-Prusoff, read-out: Ki (rat)
[3] = Table 2, displacement of capsaicin (100 nM), Cheng-Prusoff, read-out: Ki (human)
[4] = table 4, capsaicin, read-out: Ki (rat) Cap.
[5] = table 4, capsaicin, read-out: Ki (human) Cap.
[6] = @ 1 μM, ne = no effect, read-out: inhibition in percent, IC50 (human) after pH stimulus

Structure (SMILES)	Ki [1, 4] [nM]	Ki (vanilloid receptor (VR1); [5]) [nM]	IC50 (VR1/TRPV1 receptor; table 4) [nM]	other results
C[C@H](C(=O)NCc1ccc(C(F)(F)F)nc1N1CCOCC1)c1ccc(NS(C)(=O)=O)c(F)c1 [Example 72, (S)-2-(3-Fluor-4-(methylsulfonamido)phenyl)-N-((2-morpholino-6-(trifluoromethyl)pyridin-3-yl)methyl)propanamide]				Ki [1, 2]: 124 nM; Ki (vanilloid receptor (VR1); [3]): 32.6 nM; IC50 (VR1/TRPV1 receptor; Table 2): 1660 nM
CC(C(=O)NCc1ccc(C(F)(F)F)nc1N1CCN(Cc2ccccc2)CC1)c1ccc(NS(C)(=O)=O)c(F)c1 (stereo not drawn) [Example 73, N-((2-(4-benzylpiperazin-1-yl)-6-(trifluoromethyl)pyridin-3-yl)methyl)-2-(3-fluoro-4-(methylsulfonamido)phenyl)propanamide]				Ki [1, 2]: 6.6 nM; Ki (vanilloid receptor (VR1); [3]): 8.8 nM; IC50 (VR1/TRPV1 receptor; Table 2): 634 nM
CC(C(=O)NCc1ccc(C(F)(F)F)nc1N1CCNCC1)c1ccc(NS(C)(=O)=O)c(F)c1 (stereo not drawn) [Example 74]				inhibition in percent, Ki (rat) Cap. [1]: 70% @ 10 μM; inhibition in percent, Ki (human) Cap. (vanilloid receptor (VR1)): 71% @ 10 μM; inhibition in percent, IC50 (human) after pH stimulus (VR1/TRPV1 receptor; @ 10 μM): 35% @ 10 μM
CC(C(=O)NCc1ccc(C(F)(F)F)cc1Cl)c1ccc(NS(C)(=O)=O)c(F)c1 (stereo not drawn) [Example 75, N-(2-chloro-4-(trifluoromethyl)benzyl)-2-(3-fluoro-4-(methylsulfonamido)phenyl)propanamide]				Ki [1, 2]: 12.9 nM; Ki (vanilloid receptor (VR1); [3]): 4 nM; IC50 (VR1/TRPV1 receptor; Table 2): 1210 nM
CC(C(=O)NCc1ncc(C(F)(F)F)cc1Cl)c1ccc(NS(C)(=O)=O)c(F)c1 (stereo not drawn) [Example 77]				inhibition in percent, Ki (rat) Cap. [1]: 57% @ 10 μM; inhibition in percent, Ki (human) Cap. (vanilloid receptor (VR1)): 21% @ 10 μM; inhibition in percent, IC50 (human) after pH stimulus (VR1/TRPV1 receptor; @ 1 μM, ne = no effect): ne @ 1 μM
CC1CC(C)CN(c2nc(C(F)(F)F)ccc2CNC(=O)C(C)c2ccc(NS(C)(=O)=O)c(F)c2)C1 (stereo not drawn) [Example 79, 2-(3-fluoro-4-methylsulfonamido-phenyl)-N-(2-3,5 dimethylpiperidin-1-yl-6-trifluoromethyl-pyridin-3-ylmethyl)-propionamide]	0.8	0.7	25.6	
CC(C(=O)NCc1ccc(C(F)(F)F)nc1N(C)C)c1ccc(NS(C)(=O)=O)c(F)c1 (stereo not drawn) [Example 85, N-(2-dimethylamino-6-trifluoromethyl-pyridin-3-ylmethyl)-2-(3-fluoro-4-methylsulfonamido-phenyl)-propionamide]	67.9	19.1	2390	
CC(C)COc1nc(C(F)(F)F)ccc1CNC(=O)C(C)c1ccc(NS(C)(=O)=O)c(F)c1 (stereo not drawn) [Example 95, 2-(3-fluoro-4-methylsulfonamido-phenyl)-N-(2-isobutoxy-6-trifluoromethyl-pyridin-3-ylmethyl)-propionamide]	0.8	0.5	52.6	
CC(C(=O)NCc1ccc(C(F)(F)F)nc1OCC1CCC1)c1ccc(NS(C)(=O)=O)c(F)c1 (stereo not drawn) [Example 101, N-(2-cyclobutylmethoxy-6-trifluoromethyl-pyridin-3-ylmethyl)-2-(3-fluoro-4-methylsulfonamido-phenyl)-propionamide]		0.3	40.5	Ki ([1]; Ki (rat) Cap., table 4, capsaicin): 1 nM
CC(C(=O)NCc1ccc(C(F)(F)F)nc1N1CCCC1)c1ccc(NS(C)(=O)=O)c(Cl)c1 (stereo not drawn) [Example 102, 2-(3-chloro-4-methylsulfonamido-phenyl)-N-(2-pyrrolidin-1-yl-6 trifluoromethyl-pyridin-3-ylmethyl)-propionamide]	7.4	4.2		inhibition at 10 µM (VR1/TRPV1 receptor; @ 10 μM, read-out: inhibition in percent, IC50 (human) after pH stimulus): 18%
CC(C(=O)NCc1ccc(C(F)(F)F)nc1N1CCN(c2ccccc2)CC1)c1ccc(NS(C)(=O)=O)c(F)c1 (stereo not drawn) [Example 109, 2-(3-fluoro-4-methylsulfonamido-phenyl)-N-[2-(4-phenyl-piperazin-1-yl)-6-trifluoromethyl-pyridin-3-ylmethyl]-propionamide]	0.6	0.7	30.7	
CCCOc1nc(C(F)(F)F)ccc1CNC(=O)C(C)c1ccc(NS(C)(=O)=O)c(F)c1 (stereo not drawn) [Example 111, 2-(3-fluoro-4-methylsulfonamido-phenyl)-N-(2-propoxy-6-trifluoromethyl-pyridin-3-ylmethyl)-propionamide]	3.5	0.9	90.1	
CC(C(=O)NCc1ccc(C(F)(F)F)cc1F)c1ccc(NS(C)(=O)=O)c(F)c1 (stereo not drawn) [Example 114, 2-(3-fluoro-4-methylsulfonamido-phenyl)-N-(2-fluoro-4-trifluoromethyl-benzyl)-propionamide]	28.1	68.7	2360	
CC(C(=O)NCc1ccc(C(F)(F)F)nc1NCc1ccccc1)c1ccc(NS(C)(=O)=O)c(F)c1 (stereo not drawn) [Example 115, N-(2-benzylamino-6-trifluoromethyl-pyridin-3-ylmethyl)-2-(3-fluoro-4-methylsulfonamido-phenyl)-propionamide]	10.9	15.8	203	
CC(C(=O)NCc1ccc(C(F)(F)F)nc1-c1ccc(F)c(Cl)c1)c1ccc(NS(C)(=O)=O)c(F)c1 (stereo not drawn) [Example 118]	0.2	0.2	7.6	
C[C@H](C(=O)NCc1ccc(C(F)(F)F)nc1-c1ccc(F)c(Cl)c1)c1ccc(NS(C)(=O)=O)c(F)c1 [Example 120, (S)-N-[2-(3-chloro-4-fluoro-phenyl)-6-trifluoromethyl-pyridin-3-ylmethyl]-2-(3-fluoro-4-methylsulfonamido-phenyl)-propionamide]	0.4	0.7		inhibition at 1 µM (VR1/TRPV1 receptor; [6]): 51%
CC(C(=O)NCc1ccc(C(F)(F)F)nc1N1CCCCCCC1)c1ccc(NS(C)(=O)=O)c(F)c1 (stereo not drawn) [Example 128, N-(2-azocan-1-yl-6-trifluoromethyl-pyridin-3-ylmethyl)-2-(3-fluoro-4-methylsulfonamido-phenyl)-propionamide]	1	0.7	27.8	
CC(C)COc1cc(C(C)(C)C)ccc1CNC(=O)C(C)c1ccc(NS(C)(=O)=O)c(F)c1 (stereo not drawn) [Example 133, N-(4-tert-butyl-2-isobutoxy-benzyl)-2-(3-fluoro-4-methylsulfonamido-phenyl)-propionamide]	0.7	2.1		inhibition at 1 µM (VR1/TRPV1 receptor; [6]): 62%
CC(C(=O)NCc1ccc(C(F)(F)F)nc1N1CCN(C)CC1)c1ccc(NS(C)(=O)=O)c(F)c1 (stereo not drawn) [Example 134, 2-(3-fluoro-4-methylsulfonamido-phenyl)-N-[2-(4-methyl-piperazin-1-yl)-6-trifluoromethyl-pyridin-3-ylmethyl]-propionamide]	335	146		inhibition at 25 µM (VR1/TRPV1 receptor; @ 25 μM, read-out: inhibition in percent, IC50 (human) after pH stimulus): 69%
Cc1ccc(Nc2nc(C(F)(F)F)ccc2CNC(=O)C(C)c2ccc(NS(C)(=O)=O)c(F)c2)cc1C (stereo not drawn) [Example 135, N-[2-(3,4-dimethyl-phenylamino)-6-trifluoromethyl-pyridin-3-ylmethyl]-2-(3-fluoro-4-methylsulfonamido-phenyl)-propionamide]	48.9	39.3	1160	
CCCCCc1nc(C(F)(F)F)ccc1CNC(=O)C(C)c1ccc(NS(C)(=O)=O)c(F)c1 (stereo not drawn) [Example 142, 2-(3-fluoro-4-methylsulfonamido-phenyl)-N-(2-pentyl-6-trifluoromethyl-pyridin-3-ylmethyl)-propionamide]	1.2	1	8.9	
